Measured values as given in patent US7101872B2, “Farnesyl dibenzodiazepinone, and processes for its production” (Ecopia BioSciences, Inc., priority 2003, dated 2006).

Columns and labels:
Test in all cases: NCI panel SRB growth inhibition
Type in all cases: cell-based
[1] = system: OVCAR-5; conditions: Homo sapiens, OVCAR-5, Ovarian, 48 h
Method: (§1) The operation of this unique screen utilizes […] different human tumor cell lines, representing leukemia, melanoma and cancers of the lung, colon, brain, ovary, breast, prostate, and kidney.
(§2) Culture conditions and plating: The human tumor cell lines of the cancer-screening panel were grown in RPMI 1640 medium containing 5% fetal bovine serum and 2 mM L-glutamine. For a typical screening experiment, cells were inoculated into 96 well microtiter plates in 100 μL at plating densities ranging from 5,000 to 40,000 cells/well depending on the doubling time of individual cell lines (Table 5). After cell inoculation, the microtiter plates were incubated at 37° C., 5% CO2, 95% air and 100% relative humidity for 24 h prior to addition of experimental drugs. After 24 h, two plates of each cell line were fixed in situ with TCA, to represent a measurement of the cell population for each cell line at the time of drug addition (Tz). Evaluation of inhibitory activity on cell proliferation: ECO-04601 was provided as a lyophilized powder with an estimated purity of 90+%. The compound was stored at −20° C. until day of use. ECO-04601 was solubilized in dimethyl sulfoxide at 400-fold the desired final maximum test concentration. At the time of drug addition, an aliquot of frozen concentrate was thawed and diluted to twice the desired final maximum test concentration with complete medium containing 50 μg/mL gentamicin. Additional four, 10-fold or Y2 log serial dilutions were made to provide a total of five drug concentrations plus control. Aliquots of 100 μl of these different drug dilutions were added to the appropriate microtiter wells already containing 100 μl of medium, resulting in the required final drug concentrations (8.0×10^−5 M to 8.0×10^−9 M).
(§3) Following drug addition, the plates were incubated for an additional 48 h at 37° C., 5% CO2, 95% air, and 100% relative humidity. For adherent cells, the assay was terminated by the addition of cold TCA. Cells were fixed in situ by the gentle addition of 50 μl of cold 50% (w/v) TCA (final concentration, 10% TCA) and incubated for 60 minutes at 4° C. Supernatants were discarded, and the plates were washed five times with tap water and air-dried. Sulforhodamine B (SRB) solution (100 μl) at 0.4% (w/v) in 1% acetic acid was added to each well, and plates were incubated for 10 minutes at room temperature. After staining, unbound dye was removed by washing five times with 1% acetic acid and the plates were air-dried. Bound stain was subsequently solubilized with 10 mM trizma base, and the absorbance was read on an automated plate reader at a wavelength of 515 nm. For suspension cells, the methodology was the same except that the assay was terminated by fixing settled cells at the bottom of the wells by gently adding 50 μl of 80% TCA (final concentration, 16% TCA).
(§4) The growth inhibitory activity of ECO-04601 was measured by NCI utilizing the GI50 value, rather than the classical IC50 value.

[2] = system: EKVX; conditions: Homo sapiens, Non-Small Cell Lung, 48 h
Method: as §1, §2, §3, §4

[3] = system: SW-620; conditions: Homo sapiens, SW-620, Colon, 48 h
Method: as §1, §2, §3, §4

[4] = system: A498; conditions: Homo sapiens, A498, Renal, 48 h
Method: as §1, §2, §3, §4

[5] = system: HOP-62; conditions: Homo sapiens, HOP-62, Non-Small Cell Lung, 48 h
Method: as §1, §2, §3, §4

[6] = system: MDA-MB-231/ATCC; conditions: Homo sapiens, Breast, 48 h
Method: as §1, §2, §3, §4

[7] = system: SF-295; conditions: Homo sapiens, SF-295, CNS, 48 h
Method: as §1, §2, §3, §4

[8] = system: UACC-257; conditions: Homo sapiens, UACC-257, Melanoma, 48 h
Method: as §1, §2, §3, §4

[9] = system: SNB-75; conditions: Homo sapiens, SNB-75, CNS, 48 h
Method: as §1, §2, §3, §4

[10] = system: A549/ATCC; conditions: Homo sapiens, Non-Small Cell Lung, 48 h
Method: as §1, §2, §3, §4

[11] = system: NCI-H226; conditions: Homo sapiens, NCI-H226, Non-Small Cell Lung, 48 h
Method: as §1, §2, §3, §4

[12] = system: SK-MEL-28; conditions: Homo sapiens, SK-MEL-28, Melanoma, 48 h
Method: as §1, §2, §3, §4

[13] = system: BT-549; conditions: Homo sapiens, BT-549, Breast, 48 h
Method: as §1, §2, §3, §4

[14] = system: T-47D; conditions: Homo sapiens, T47D, Breast, 48 h
Method: as §1, §2, §3, §4

[15] = system: MCF7; conditions: Homo sapiens, MCF7, Breast, 48 h
Method: as §1, §2, §3, §4

[16] = system: HCT-15; conditions: Homo sapiens, HCT-15, Colon, 48 h
Method: as §1, §2, §3, §4

[17] = system: DU-145; conditions: Homo sapiens, DU-145, Prostate, 48 h
Method: as §1, §2, §3, §4

[18] = system: HCT-116; conditions: Homo sapiens, HCT-116, Colon, 48 h
Method: as §1, §2, §3, §4

[19] = system: MDA-MB-435; conditions: Homo sapiens, MDA-MB-435, Breast, 48 h
Method: as §1, §2, §3, §4

[20] = system: SK-OV-3; conditions: Homo sapiens, SK-OV-3, Ovarian, 48 h
Method: as §1, §2, §3, §4

[21] = system: SK-MEL-2; conditions: Homo sapiens, SK-MEL-2, Melanoma, 48 h
Method: as §1, §2, §3, §4

[22] = system: SNB-19; conditions: Homo sapiens, SNB-19, CNS, 48 h
Method: as §1, §2, §3, §4

[23] = system: LOX IMVI; conditions: Homo sapiens, Melanoma, 48 h
Method: as §1, §2, §3, §4

**Q.** Which GI50 [1] does the source give for `CC(C)=CCC/C(C)=C/CC/C(C)=C/CN1C(=O)c2cccc(O)c2Nc2c(O)cc(O)cc21` [ECO-04601, 10-farnesyl-4,6,8-trihydroxy-dibenzodiazepin-11-one] here?
**A.** 2.81 µM

**Q.** And the GI50 [2]?
**A.** 0.23 µM

**Q.** What about the GI50 [3] of the same molecule?
**A.** 2.72 µM

**Q.** And the GI50 [4]?
**A.** 22.3 µM

**Q.** And the GI50 [5]?
**A.** 8.29 µM

**Q.** And the GI50 [6]?
**A.** 2.72 µM

**Q.** And the GI50 [7]?
**A.** 12.7 µM

**Q.** And the GI50 [8]?
**A.** 2.31 µM

**Q.** What about the GI50 [9] of the same molecule?
**A.** 7.71 µM

**Q.** What about the GI50 [10] of the same molecule?
**A.** 9.1 µM

**Q.** And the GI50 [11]?
**A.** 2 µM

**Q.** And the GI50 [12]?
**A.** 11.6 µM

**Q.** And the GI50 [13]?
**A.** 0.11 µM

**Q.** What about the GI50 [14] of the same molecule?
**A.** 0.77 µM

**Q.** And the GI50 [15]?
**A.** 10.1 µM

**Q.** What about the GI50 [16] of the same molecule?
**A.** 9.73 µM

**Q.** What about the GI50 [17] of the same molecule?
**A.** 3.56 µM

**Q.** And the GI50 [18]?
**A.** 2.92 µM

**Q.** What about the GI50 [19] of the same molecule?
**A.** 15.3 µM

**Q.** And the GI50 [20]?
**A.** 4 µM

**Q.** And the GI50 [21]?
**A.** 25 µM

**Q.** What about the GI50 [22] of the same molecule?
**A.** 2.9 µM

**Q.** And the GI50 [23]?
**A.** 4.53 µM
